Values of other authors as cited in patent publication US7756644B2, “System and method for automated selection of T-cell epitopes” (priority 2005, dated 2010).

System: memory T-cells isolated from HLA-B7-positive EBV-seropositive individuals
Conditions: PNAS 1999

Sequence	recognition by memory T-cells / immunogenicity
RPPIFIRRL [EBNA 3A.379]	recognized
QPRAPIRPI (EBNA 3C.881 peptide from Epstein-Barr virus)	is not
